Assay results published in PubChem BioAssay AID1963442 (Molecular Pharmacology Branch, DTP, NCI, 2024).

Tested on: MPNST complex spheroid with HUVEC/MSC, growth, % test/control
Assay: Anticancer human tumor MPNST cell line growth inhibition [Asc];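 further: compounds left on spheroids for seven days before reading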
Settings: for IC50: curve of first compound; for viability, T/C: stronger effect = lower value; active means viability on the fitted dose curve at most 10% of control; inactive means the rest
Summary of the method: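 Tumor cells were grown as complex spheroids with human endothelial cells (HUVEC) and human mesenchymal stem cells as stroma. Agents were tested alone and in combination, in half-log steps down from the clinical Cmax, or from 10 microM where Cmax was unknown.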

Cc1nc(N2CCC3(CC2)COC(C)C3N)c(CO)nc1Sc1ccnc(N)c1Cl (configuration not stated) + CCN1C(C(=O)NC23CCC(C(=O)O)(CC2)CC3)C(c2cccc(Cl)c2F)C2(C(=O)Nc3cc(Cl)ccc32)C12CCCCC2
inactive: viability, T/C (second compound 0.03 µM, first compound 0.00949 µM) 92% | viability, T/C (second compound 0.03 µM, first compound 0.03 µM) 84.1% | viability, T/C (second compound 0.03 µM, first compound 0.0949 µM) 90.7% | viability, T/C (second compound 0.03 µM, first compound 0.3 µM) 87.9% | viability, T/C (second compound 0.03 µM, first compound 0.949 µM) 101% | viability, T/C (second compound 0.03 µM, first compound 3 µM) 75.5% | viability, T/C (second compound 0.0949 µM, first compound 0.00949 µM) 83.8% | viability, T/C (second compound 0.0949 µM, first compound 0.03 µM) 89% | viability, T/C (second compound 0.0949 µM, first compound 0.0949 µM) 92.2% | viability, T/C (second compound 0.0949 µM, first compound 0.3 µM) 82.2% | viability, T/C (second compound 0.0949 µM, first compound 0.949 µM) 75.5% | viability, T/C (second compound 0.0949 µM, first compound 3 µM) 58.3% | viability, T/C (second compound 0.3 µM, first compound 0.00949 µM) 101% | viability, T/C (second compound 0.3 µM, first compound 0.03 µM) 83.6% | viability, T/C (second compound 0.3 µM, first compound 0.0949 µM) 92.8% | viability, T/C (second compound 0.3 µM, first compound 0.3 µM) 77.2% | viability, T/C (second compound 0.3 µM, first compound 0.949 µM) 83.2% | viability, T/C (second compound 0.3 µM, first compound 3 µM) 63.4% | viability, T/C (second compound 0.949 µM, first compound 0.00949 µM) 77.9% | viability, T/C (second compound 0.949 µM, first compound 0.03 µM) 89.9% | viability, T/C (second compound 0.949 µM, first compound 0.0949 µM) 70% | viability, T/C (second compound 0.949 µM, first compound 0.3 µM) 76.7% | viability, T/C (second compound 0.949 µM, first compound 0.949 µM) 68% | viability, T/C (second compound 0.949 µM, first compound 3 µM) 54.4% | viability, T/C (second compound 3 µM, first compound 0.00949 µM) 66.3% | viability, T/C (second compound 3 µM, first compound 0.03 µM) 75.9% | viability, T/C (second compound 3 µM, first compound 0.0949 µM) 72.4% | viability, T/C (second compound 3 µM, first compound 0.3 µM) 67.8% | viability, T/C (second compound 3 µM, first compound 0.949 µM) 52.3% | viability, T/C (second compound 3 µM, first compound 3 µM) 55.8%
> 3000 nM: IC50 (second compound 0.03 µM) | IC50 (second compound 0.0949 µM) | IC50 (second compound 0.3 µM) | IC50 (second compound 0.949 µM) | IC50 (second compound 3 µM)

O=C(c1cc(Cc2n[nH]c(=O)c3ccccc23)ccc1F)N1CCN(C(=O)C2CC2)CC1 + CNC(C)C(=O)NC1CN(S(=O)(=O)c2cccc(S(=O)(=O)N3CCC4CCC(C(=O)NC(c5ccccc5)c5ccccc5)N4C(=O)C(NC(=O)C(C)NC)C3)c2)CCC2CCC(C(=O)NC(c3ccccc3)c3ccccc3)N2C1=O
2010 nM: IC50 (second compound 0.0316 µM)
inactive: viability, T/C (second compound 0.00316 µM, first compound 0.0316 µM) 12.7% | viability, T/C (second compound 0.00316 µM, first compound 0.1 µM) 10.7% | viability, T/C (second compound 0.00316 µM, first compound 0.316 µM) 13.4% | viability, T/C (second compound 0.00316 µM, first compound 1 µM) 12.9% | viability, T/C (second compound 0.00316 µM, first compound 3.16 µM) 12.1% | viability, T/C (second compound 0.00316 µM, first compound 10 µM) 13.7% | viability, T/C (second compound 0.01 µM, first compound 0.0316 µM) 41% | viability, T/C (second compound 0.01 µM, first compound 0.1 µM) 36.8% | viability, T/C (second compound 0.01 µM, first compound 0.316 µM) 50.4% | viability, T/C (second compound 0.01 µM, first compound 1 µM) 44.6% | viability, T/C (second compound 0.01 µM, first compound 3.16 µM) 26.4% | viability, T/C (second compound 0.01 µM, first compound 10 µM) 27.4% | viability, T/C (second compound 0.0316 µM, first compound 0.0316 µM) 76.2% | viability, T/C (second compound 0.0316 µM, first compound 0.1 µM) 65.6% | viability, T/C (second compound 0.0316 µM, first compound 0.316 µM) 59.9% | viability, T/C (second compound 0.0316 µM, first compound 1 µM) 64.3% | viability, T/C (second compound 0.0316 µM, first compound 3.16 µM) 40.4% | viability, T/C (second compound 0.0316 µM, first compound 10 µM) 37.7% | viability, T/C (second compound 0.1 µM, first compound 0.0316 µM) 76.5% | viability, T/C (second compound 0.1 µM, first compound 0.1 µM) 85% | viability, T/C (second compound 0.1 µM, first compound 0.316 µM) 82.4% | viability, T/C (second compound 0.1 µM, first compound 1 µM) 79.8% | viability, T/C (second compound 0.1 µM, first compound 3.16 µM) 41.8% | viability, T/C (second compound 0.1 µM, first compound 10 µM) 38.8% | viability, T/C (second compound 0.316 µM, first compound 0.0316 µM) 100% | viability, T/C (second compound 0.316 µM, first compound 0.1 µM) 66% | viability, T/C (second compound 0.316 µM, first compound 0.316 µM) 84.7% | viability, T/C (second compound 0.316 µM, first compound 1 µM) 81.3% | viability, T/C (second compound 0.316 µM, first compound 3.16 µM) 41.8% | viability, T/C (second compound 0.316 µM, first compound 10 µM) 42.4% | viability, T/C (second compound 1 µM, first compound 0.0316 µM) 75.8% | viability, T/C (second compound 1 µM, first compound 0.1 µM) 63.4% | viability, T/C (second compound 1 µM, first compound 0.316 µM) 60% | viability, T/C (second compound 1 µM, first compound 1 µM) 68.2% | viability, T/C (second compound 1 µM, first compound 3.16 µM) 45.3% | viability, T/C (second compound 1 µM, first compound 10 µM) 42%
2460 nM: IC50 (second compound 0.1 µM)
< 31.6 nM: IC50 (second compound 0.00316 µM) | IC50 (second compound 0.01 µM)
2510 nM: IC50 (second compound 0.316 µM)
3390 nM: IC50 (second compound 1 µM)
